Reference: patent US12479847B2 (DANA-FARBER CANCER INSTITUTE, INC., priority 2019, dated 2025)

Legend:
Assay in all cases: KINOMEscan (ScanMAX) kinase profiling
Format in all cases: binding
panel of 468 kinases [1] = target: T1, panel of 468 kinases (Homo sapiens, UniProt P22694); settings: PKAC-beta; 1 μM; read-out: % control
T1 construct: purchased KINOMEscan (ScanMAX) service

panel of 468 kinases [2] = target: T2, panel of 468 kinases (Homo sapiens, UniProt Q9H2X6); settings: HIPK2; 1 μM; read-out: % control
T2 construct: purchased KINOMEscan (ScanMAX) service

panel of 468 kinases [3] = target: T3, panel of 468 kinases (Homo sapiens, UniProt Q9Y6R4); settings: MAP3K4; 1 μM; read-out: % control
T3 construct: purchased KINOMEscan (ScanMAX) service

panel of 468 kinases [4] = target: T4, panel of 468 kinases (Homo sapiens, UniProt Q02779); settings: MLK2; 1 μM; read-out: % control
T4 construct: purchased KINOMEscan (ScanMAX) service

panel of 468 kinases [5] = target: T5, panel of 468 kinases (Homo sapiens, UniProt P54762); settings: EPHB1; 1 μM; read-out: % control
T5 construct: purchased KINOMEscan (ScanMAX) service
T5 sequence (P54762 18-984): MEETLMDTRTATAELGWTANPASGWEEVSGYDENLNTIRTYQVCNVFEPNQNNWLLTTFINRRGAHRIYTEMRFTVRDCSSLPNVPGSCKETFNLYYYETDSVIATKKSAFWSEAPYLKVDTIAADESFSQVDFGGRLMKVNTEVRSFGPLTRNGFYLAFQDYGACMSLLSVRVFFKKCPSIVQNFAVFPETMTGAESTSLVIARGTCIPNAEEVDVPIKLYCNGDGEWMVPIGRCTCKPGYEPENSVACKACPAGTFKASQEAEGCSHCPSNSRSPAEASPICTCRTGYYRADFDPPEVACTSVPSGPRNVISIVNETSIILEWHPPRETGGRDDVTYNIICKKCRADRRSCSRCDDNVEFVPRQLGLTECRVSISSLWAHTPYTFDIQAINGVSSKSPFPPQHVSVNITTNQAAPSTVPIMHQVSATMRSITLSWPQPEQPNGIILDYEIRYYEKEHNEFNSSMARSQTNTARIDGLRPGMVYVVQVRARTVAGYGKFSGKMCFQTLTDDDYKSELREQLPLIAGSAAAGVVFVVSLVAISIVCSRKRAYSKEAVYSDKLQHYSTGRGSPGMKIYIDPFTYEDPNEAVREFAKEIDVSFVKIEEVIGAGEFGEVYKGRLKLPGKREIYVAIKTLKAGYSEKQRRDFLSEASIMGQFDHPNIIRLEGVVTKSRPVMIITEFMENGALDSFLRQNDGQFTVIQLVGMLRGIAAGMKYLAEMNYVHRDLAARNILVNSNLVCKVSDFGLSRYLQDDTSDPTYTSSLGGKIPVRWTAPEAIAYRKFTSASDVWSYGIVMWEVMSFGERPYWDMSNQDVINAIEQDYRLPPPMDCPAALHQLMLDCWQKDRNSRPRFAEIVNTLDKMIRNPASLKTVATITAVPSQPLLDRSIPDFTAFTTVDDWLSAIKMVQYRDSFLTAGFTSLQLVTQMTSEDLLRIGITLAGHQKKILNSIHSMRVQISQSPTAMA

panel of 468 kinases [6] = target: T6, panel of 468 kinases (Homo sapiens, UniProt P42685); settings: FRK; 1 μM; read-out: % control
T6 construct: purchased KINOMEscan (ScanMAX) service

panel of 468 kinases [7] = target: T7, panel of 468 kinases (Homo sapiens, UniProt Q13131); settings: AMPK-alpha1; 1 μM; read-out: % control
T7 construct: purchased KINOMEscan (ScanMAX) service

panel of 468 kinases [8] = target: T8, panel of 468 kinases (Homo sapiens, UniProt Q9H4A3); settings: WNK1; 1 μM; read-out: % control
T8 construct: purchased KINOMEscan (ScanMAX) service

panel of 468 kinases [9] = target: T9, panel of 468 kinases (Homo sapiens, UniProt Q9Y2I7); settings: PIKFYVE; 1 μM; read-out: % control
T9 construct: purchased KINOMEscan (ScanMAX) service

panel of 468 kinases [10] = target: T10, panel of 468 kinases (Homo sapiens, UniProt Q15303); settings: ERBB4; 1 μM; read-out: % control
T10 construct: purchased KINOMEscan (ScanMAX) service

panel of 468 kinases [11] = target: T11, panel of 468 kinases (Homo sapiens, UniProt Q13627); settings: DYRK1A; 1 μM; read-out: % control
T11 construct: purchased KINOMEscan (ScanMAX) service

panel of 468 kinases [12] = target: T12, panel of 468 kinases (Homo sapiens, UniProt Q12852); settings: DLK; 1 μM; read-out: % control
T12 construct: purchased KINOMEscan (ScanMAX) service
T12 sequence (Q12852 1-859): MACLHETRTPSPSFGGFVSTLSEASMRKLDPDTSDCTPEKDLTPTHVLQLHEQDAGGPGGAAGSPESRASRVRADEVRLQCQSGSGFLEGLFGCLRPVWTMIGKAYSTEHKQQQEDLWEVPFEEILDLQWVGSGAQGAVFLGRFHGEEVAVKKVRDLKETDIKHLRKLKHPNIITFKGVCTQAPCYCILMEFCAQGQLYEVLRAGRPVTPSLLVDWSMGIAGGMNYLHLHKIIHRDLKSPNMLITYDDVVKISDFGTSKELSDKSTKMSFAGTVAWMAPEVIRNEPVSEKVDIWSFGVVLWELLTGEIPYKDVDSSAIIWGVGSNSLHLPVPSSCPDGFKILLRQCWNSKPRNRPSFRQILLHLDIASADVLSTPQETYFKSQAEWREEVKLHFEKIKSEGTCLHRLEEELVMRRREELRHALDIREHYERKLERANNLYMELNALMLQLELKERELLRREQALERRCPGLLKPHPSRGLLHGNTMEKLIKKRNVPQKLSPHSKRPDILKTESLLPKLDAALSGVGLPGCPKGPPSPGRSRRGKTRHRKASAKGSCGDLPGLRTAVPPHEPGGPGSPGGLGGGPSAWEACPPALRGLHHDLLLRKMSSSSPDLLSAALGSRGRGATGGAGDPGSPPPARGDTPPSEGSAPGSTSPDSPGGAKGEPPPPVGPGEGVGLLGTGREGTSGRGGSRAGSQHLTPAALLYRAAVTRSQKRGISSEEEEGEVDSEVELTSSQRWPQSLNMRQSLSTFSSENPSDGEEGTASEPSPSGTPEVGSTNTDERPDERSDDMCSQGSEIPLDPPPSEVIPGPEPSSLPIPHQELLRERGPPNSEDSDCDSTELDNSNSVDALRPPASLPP

T8 sequence (Q9H4A3 whole entry): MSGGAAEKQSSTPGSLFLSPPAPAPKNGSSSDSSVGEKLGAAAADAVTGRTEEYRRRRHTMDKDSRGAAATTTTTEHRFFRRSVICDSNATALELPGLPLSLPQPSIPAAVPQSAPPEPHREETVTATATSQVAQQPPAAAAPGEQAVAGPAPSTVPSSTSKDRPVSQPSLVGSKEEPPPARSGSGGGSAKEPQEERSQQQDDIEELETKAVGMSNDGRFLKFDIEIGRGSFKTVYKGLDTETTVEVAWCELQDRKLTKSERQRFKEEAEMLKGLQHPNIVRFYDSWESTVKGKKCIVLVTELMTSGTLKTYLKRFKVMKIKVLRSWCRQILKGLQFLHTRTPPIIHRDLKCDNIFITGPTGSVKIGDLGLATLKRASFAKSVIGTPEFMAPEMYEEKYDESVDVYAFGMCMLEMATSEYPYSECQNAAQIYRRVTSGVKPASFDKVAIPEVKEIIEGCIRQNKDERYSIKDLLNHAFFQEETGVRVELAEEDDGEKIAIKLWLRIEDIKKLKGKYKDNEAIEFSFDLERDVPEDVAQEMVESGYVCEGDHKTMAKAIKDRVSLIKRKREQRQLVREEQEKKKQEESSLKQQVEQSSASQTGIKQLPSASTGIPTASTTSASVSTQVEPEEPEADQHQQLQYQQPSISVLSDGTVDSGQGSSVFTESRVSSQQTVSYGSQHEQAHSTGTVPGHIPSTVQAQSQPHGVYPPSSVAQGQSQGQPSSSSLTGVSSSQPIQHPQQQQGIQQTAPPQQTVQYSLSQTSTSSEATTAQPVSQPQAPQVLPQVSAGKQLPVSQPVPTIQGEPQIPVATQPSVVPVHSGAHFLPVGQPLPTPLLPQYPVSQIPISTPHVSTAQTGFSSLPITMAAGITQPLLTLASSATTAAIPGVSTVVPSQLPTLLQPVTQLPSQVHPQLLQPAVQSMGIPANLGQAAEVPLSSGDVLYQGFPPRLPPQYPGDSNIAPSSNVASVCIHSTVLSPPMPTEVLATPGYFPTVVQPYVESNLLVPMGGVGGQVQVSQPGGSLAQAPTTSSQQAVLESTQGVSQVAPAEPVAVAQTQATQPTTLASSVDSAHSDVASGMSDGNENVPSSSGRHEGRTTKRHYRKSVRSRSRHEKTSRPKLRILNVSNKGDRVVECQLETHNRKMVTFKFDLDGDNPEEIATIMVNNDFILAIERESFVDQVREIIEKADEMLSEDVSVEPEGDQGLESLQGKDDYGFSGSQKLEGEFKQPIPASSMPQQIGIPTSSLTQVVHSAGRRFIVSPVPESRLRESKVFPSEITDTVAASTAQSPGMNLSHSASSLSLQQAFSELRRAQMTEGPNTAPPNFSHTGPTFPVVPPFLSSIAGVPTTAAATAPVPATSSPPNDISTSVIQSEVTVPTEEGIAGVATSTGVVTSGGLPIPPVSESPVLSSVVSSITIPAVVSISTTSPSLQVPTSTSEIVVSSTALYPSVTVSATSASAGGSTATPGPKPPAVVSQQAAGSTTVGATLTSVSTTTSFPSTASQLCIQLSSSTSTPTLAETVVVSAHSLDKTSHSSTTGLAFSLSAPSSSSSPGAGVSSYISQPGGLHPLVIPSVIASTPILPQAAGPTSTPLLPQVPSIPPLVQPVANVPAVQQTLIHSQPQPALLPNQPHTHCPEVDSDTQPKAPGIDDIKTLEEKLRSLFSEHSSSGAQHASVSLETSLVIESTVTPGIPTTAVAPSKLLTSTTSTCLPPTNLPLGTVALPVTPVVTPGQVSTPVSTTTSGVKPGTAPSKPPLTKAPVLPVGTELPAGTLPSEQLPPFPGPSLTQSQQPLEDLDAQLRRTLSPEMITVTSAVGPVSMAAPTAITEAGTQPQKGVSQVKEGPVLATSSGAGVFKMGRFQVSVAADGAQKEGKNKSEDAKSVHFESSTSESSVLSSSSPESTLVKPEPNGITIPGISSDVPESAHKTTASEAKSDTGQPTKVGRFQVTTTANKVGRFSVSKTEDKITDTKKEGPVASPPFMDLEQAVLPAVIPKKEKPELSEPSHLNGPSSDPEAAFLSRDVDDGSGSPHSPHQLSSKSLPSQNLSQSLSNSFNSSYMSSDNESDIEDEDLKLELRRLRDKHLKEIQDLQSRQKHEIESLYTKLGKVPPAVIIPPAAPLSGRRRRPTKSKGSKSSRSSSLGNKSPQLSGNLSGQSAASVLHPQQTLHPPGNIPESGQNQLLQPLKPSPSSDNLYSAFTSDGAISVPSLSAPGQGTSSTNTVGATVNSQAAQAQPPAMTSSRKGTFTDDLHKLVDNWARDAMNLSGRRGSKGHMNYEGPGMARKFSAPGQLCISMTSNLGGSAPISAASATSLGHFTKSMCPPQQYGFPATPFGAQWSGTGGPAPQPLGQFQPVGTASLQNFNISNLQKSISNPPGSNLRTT
T4 sequence (Q02779 whole entry): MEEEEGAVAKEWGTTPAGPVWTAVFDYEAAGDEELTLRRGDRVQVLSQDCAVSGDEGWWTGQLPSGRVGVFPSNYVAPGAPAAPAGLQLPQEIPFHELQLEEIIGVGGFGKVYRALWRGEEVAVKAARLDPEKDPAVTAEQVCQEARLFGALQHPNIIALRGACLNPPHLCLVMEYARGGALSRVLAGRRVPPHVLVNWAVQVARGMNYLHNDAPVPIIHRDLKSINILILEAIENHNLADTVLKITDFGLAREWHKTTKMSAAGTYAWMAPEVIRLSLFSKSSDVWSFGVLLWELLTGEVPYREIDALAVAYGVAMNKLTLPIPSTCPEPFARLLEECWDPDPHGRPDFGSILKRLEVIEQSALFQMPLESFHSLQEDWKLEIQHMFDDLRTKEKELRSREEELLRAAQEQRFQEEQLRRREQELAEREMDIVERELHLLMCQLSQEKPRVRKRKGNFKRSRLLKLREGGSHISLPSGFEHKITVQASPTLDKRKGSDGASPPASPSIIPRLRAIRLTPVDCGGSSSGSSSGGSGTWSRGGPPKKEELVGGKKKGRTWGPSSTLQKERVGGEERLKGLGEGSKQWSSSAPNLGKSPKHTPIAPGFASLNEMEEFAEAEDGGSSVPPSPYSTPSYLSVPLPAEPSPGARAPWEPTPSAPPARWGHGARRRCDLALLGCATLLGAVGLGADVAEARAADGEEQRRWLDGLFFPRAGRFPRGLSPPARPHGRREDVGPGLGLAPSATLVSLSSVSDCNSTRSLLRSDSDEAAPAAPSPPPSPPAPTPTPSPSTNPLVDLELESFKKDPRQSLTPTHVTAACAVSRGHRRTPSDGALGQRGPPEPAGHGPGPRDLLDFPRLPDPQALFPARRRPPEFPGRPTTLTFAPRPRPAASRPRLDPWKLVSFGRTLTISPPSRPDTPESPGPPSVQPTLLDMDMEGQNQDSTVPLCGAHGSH
T7 sequence (Q13131 whole entry): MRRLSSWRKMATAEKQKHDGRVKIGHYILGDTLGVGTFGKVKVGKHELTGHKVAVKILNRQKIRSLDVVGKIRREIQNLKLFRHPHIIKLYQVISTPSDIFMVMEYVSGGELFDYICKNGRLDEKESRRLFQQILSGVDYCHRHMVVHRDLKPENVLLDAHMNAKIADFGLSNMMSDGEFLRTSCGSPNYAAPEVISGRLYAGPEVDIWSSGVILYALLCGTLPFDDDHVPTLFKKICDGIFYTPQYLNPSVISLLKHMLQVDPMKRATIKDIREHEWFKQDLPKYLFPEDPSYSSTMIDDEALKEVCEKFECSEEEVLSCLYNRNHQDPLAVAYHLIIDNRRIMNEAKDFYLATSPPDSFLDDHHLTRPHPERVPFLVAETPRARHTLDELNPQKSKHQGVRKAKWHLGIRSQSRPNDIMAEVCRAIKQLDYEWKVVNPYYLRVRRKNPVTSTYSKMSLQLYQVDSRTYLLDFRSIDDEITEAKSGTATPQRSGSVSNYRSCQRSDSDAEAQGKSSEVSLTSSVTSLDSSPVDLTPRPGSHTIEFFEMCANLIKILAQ
T6 sequence (P42685 whole entry): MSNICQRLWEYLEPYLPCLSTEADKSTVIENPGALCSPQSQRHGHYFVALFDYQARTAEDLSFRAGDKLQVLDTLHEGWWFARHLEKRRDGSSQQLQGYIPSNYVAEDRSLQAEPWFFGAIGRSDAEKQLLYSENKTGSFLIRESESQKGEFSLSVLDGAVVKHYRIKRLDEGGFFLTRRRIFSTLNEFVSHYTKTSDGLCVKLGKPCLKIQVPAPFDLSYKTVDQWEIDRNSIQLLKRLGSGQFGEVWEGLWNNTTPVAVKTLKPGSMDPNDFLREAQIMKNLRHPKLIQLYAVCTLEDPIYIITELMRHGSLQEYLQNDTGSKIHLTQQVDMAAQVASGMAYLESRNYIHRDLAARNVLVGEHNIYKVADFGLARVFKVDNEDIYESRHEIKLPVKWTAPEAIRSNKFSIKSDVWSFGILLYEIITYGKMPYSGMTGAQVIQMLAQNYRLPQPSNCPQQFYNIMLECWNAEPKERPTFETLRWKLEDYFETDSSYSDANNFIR

Structure (SMILES)	remaining binding at 1 µM (panel of 468 kinases [1])	remaining binding at 1 µM (panel of 468 kinases [2])	remaining binding at 1 µM (panel of 468 kinases [3])	remaining binding at 1 µM (panel of 468 kinases [4])	remaining binding at 1 µM (panel of 468 kinases [5])	remaining binding at 1 µM (panel of 468 kinases [6])	remaining binding at 1 µM (panel of 468 kinases [7])	remaining binding at 1 µM (panel of 468 kinases [8])	remaining binding at 1 µM (panel of 468 kinases [9])	remaining binding at 1 µM (panel of 468 kinases [10])	remaining binding at 1 µM (panel of 468 kinases [11])	remaining binding at 1 µM (panel of 468 kinases [12])
CNc1nc(Nc2ccc(S(=O)(=O)N3CCC(N4CCOCC4)CC3)cc2OC)nc2[nH]cc(Cl)c12 [Compound 12, 5-chloro-N2-(2-methoxy-4-((4-morpholinopiperidin-1-yl)sulfonyl)phenyl)-N4-methyl-7H-pyrrolo[2,3-d]pyrimidine-2,4-diamine]	100%	100%	100%	99%	88%	100%	100%	100%	64%	99%	14%	95%
CNc1nc(Nc2ccc(P3(=O)CCN(C4CCOCC4)CC3)cc2OC)nc2[nH]cc(Cl)c12 [Compound 77, 4-(4-((5-chloro-4-(methylamino)-7H-pyrrolo[2,3-d]pyrimidin-2-yl)amino)-3-methoxyphenyl)-1-(tetrahydro-2H-pyran-4-yl)-1,4-azaphosphinane 4-oxide]	100%	95%	100%	99%	100%	100%	93%	91%	70%	88%	4.7%	100%
CNc1nc(Nc2ccc(C(=O)N3CCC(N4CCOCC4)CC3)c3c2OCO3)nc2[nH]cc(Cl)c12 [Compound 75, (7-((5-chloro-4-(methylamino)-7H-pyrrolo[2,3-d]pyrimidin-2-yl)amino)benzo[d][1,3]dioxol-4-yl)(4-morpholinopiperidin-1-yl)methanone]	100%	66%	100%	93%	100%	100%	89%	100%	72%	90%	8.9%	100%
